Assay results published in US5525617A, “Fibrinogen receptor antagonists” (Merck & Co., Inc., priority 1994, dated 1996).
pIC50: −log10 of the molar value.

Tested on: gel-filtered human platelets
Test: in vitro ADP-stimulated platelet aggregation (inhibition)
Assay type: cell-based
Details: gel-filtered human platelets 2×10^8 per ml, fibrinogen 100 micrograms per ml, Ca^2+ 1 mM, 10 mM ADP, 37° C., Chronolog aggregometer
Experimental: Platelet aggregation is measured at 37° C. in a Chronolog aggregometer. The reaction mixture contains gel-filtered human platelets (2×10^8 per ml), fibrinogen (100 micrograms per ml (ug/ml)), Ca^2+ (1 mM), and the compound to be tested. The aggregation is initiated by adding […] ADP 1 minute after the other components are added. The reaction is then allowed to proceed for at least 2 minutes. The extent of inhibition of aggregation is expressed as the percentage of the rate of aggregation observed in the absence of inhibitor. The IC50 is the dose of a particular compound inhibiting aggregation by 50% relative to a control lacking the compound.
In addition to the following preparative procedures, several examples of in vitro bioactivity of compounds within the scope of the present invention are indicated. To illustrate, one test which is used to evaluate fibrinogen receptor antagonist activity is based on evaluation of inhibition of ADP-stimulated platelets. Aggregation requires that fibrinogen bind to and occupy the platelet fibrinogen receptor site. Inhibitors of fibrinogen binding inhibit aggregation. In the ADP-stimulated platelet aggregation assay used to determine inhibition associated with the compounds claimed in the instant invention, human platelets are isolated from fresh blood, collected into acid citrate/dextrose by differential centrifugation followed by gel filtration on Sepharose 2B in divalent ion-free Tyrode's buffer (pH 7.4) containing 2% bovine serum albumin.

Row | pIC50 | SMILES
1 | 5.64 | O=C(O)CCNC(=O)c1ccc2c(c1)C(=O)C(CCC1CCNCC1)C2 (stereo not drawn)
2 | 8.05 | CCCCS(=O)(=O)N[C@@H](CNC(=O)c1ccc2c(c1)C(=O)C(CCC1CCNCC1)C2)C(=O)O (stereo partly drawn)
3 | 7.85 | CCCCS(=O)(=O)N[C@@H](CNC(=O)c1ccc2c(c1)CC(CCC1CCNCC1)C2)C(=O)O (stereo partly drawn)
